Experimental data as given in patent US9518065B2, “IRAK inhibitors and uses thereof” (NIMBUS IRIS, INC., priority 2013, dated 2016).
Like-named read-outs stand apart in the source and are kept apart here.

Experiments:
IRAK4 = target: T1, IRAK4 (Homo sapiens, UniProt Q9NWZ3); test: IRAK-4 activity inhibition assay (Caliper); assay type: biochemical; settings: 3.5 nM IRAK4, 37 μM ATP, 1.5 μM Peptide 8
T1 construct: purchased CARNA Bioscience 09-145
T1 sequence (Q9NWZ3 1-460): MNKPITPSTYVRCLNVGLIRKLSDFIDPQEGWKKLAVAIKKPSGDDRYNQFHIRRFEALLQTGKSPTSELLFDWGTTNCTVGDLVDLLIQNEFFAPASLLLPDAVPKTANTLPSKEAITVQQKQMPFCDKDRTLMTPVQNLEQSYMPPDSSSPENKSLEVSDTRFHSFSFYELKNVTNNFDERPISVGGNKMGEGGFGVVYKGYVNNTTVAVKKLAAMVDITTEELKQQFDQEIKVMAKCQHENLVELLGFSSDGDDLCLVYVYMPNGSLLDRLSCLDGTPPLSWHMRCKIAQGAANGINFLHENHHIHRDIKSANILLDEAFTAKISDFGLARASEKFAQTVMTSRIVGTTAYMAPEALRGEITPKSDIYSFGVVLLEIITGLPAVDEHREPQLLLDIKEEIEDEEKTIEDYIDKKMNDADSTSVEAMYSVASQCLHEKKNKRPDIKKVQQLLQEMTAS
Protocol: A 1× kinase base buffer was prepared from 50 mM HEPES, pH 7.5 and 0.0015% Brij-35. A stop buffer was prepared from 100 mM HEPES, pH 7.5, 0.015% Brij-35, 0.2% Coating Reagent #3, and 50 mM EDTA.
Test compound was diluted to 50× of the final desired highest inhibitor concentration in reaction by 100% DMSO. 100 ul of this compound dilution was transferred to a well in a 96-well plate. For example, if desired highest inhibitor concentration in IC50 determination is 100 uM, then prepare 5000 uM of compound DMSO solution in this step.
Test compound was serially diluted by transferring 30 μl to 60 μl of 100% DMSO in the next well and so forth for a total of 10 concentrations. 100 μl of 100% DMSO was added to two empty wells for no compound control and no enzyme control in the same 96-well plate.
A new 96-well plate was marked as intermediate plate. 5 μl of compound serial dilution was transferred from source plate to the corresponding wells of the intermediate plate. 45 μl of 1× kinase base buffer (KB buffer) was added to each well of the intermediate plate. The intermediate plate was placed for 10 min on a shaker.
5 μl of each well was transferred from the 96-well intermediate plate to a 384-well plate in duplicates. For example, A1 of the 96-well plate is transferred to A1 and A2 of the 384-well plate. A2 of the 96-well plate is transferred to A3 and A4 of the 384-well plate, and so on.
IRAK4 and DTT in 1× kinase base buffer was added. The 2.5× enzyme mix contained 8.8 nM IRAK4 and 5 mM DTT.
Peptide 8, ATP, MgCl2 and MnCl2 were added in the 1× kinase base buffer. The 2.5× peptide mix contained 3.75 μM peptide 8, 92.5 μM ATP, 12.5 mM MgCl2 and 2.5 mM MnCl2.
Assay plate already contained 5 μl of compound in 10% DMSO. Added 10 μl of 2.5× enzyme solution to each well of the 384-well assay plate, except no enzyme control wells. The final concentration of IRAK4 in reaction was 3.5 nM. Added 10 μl of 1× kinase base buffer to no enzyme control wells in the assay plate. Incubated at room temperature for 10 min.
Added 10 μl of 2.5× peptide solution to each well of the 384-well assay plate. The final concentration of Peptide 8 and ATP was 1.5 μM and 37 μM, respectively. Incubated at 28° C. for 40 minutes. Added 25 μl of stop buffer to stop reaction. Collected data on Caliper.
Copied conversion % data from Caliper program. Converted conversion % values to percent inhibition values. Percent inhibition=(max-conversion %)/(max-min)*100, where “max” means the conversion % of DMSO control and “min” means the conversion % of no enzyme control.
The compound numbers correspond to the compound numbers in Table 1. Compounds having an activity designated as “A” provided an IC50≦1 μM; compounds having an activity designated as “B” provided an IC50 of 1-5 μM; compounds having an activity designated as “C” provided an IC50 of ≧5 μM. “NA” stands for “not assayed.”

[1] = system: TNFα and IL8 production in THP-1 cells; test: LPS induced cytokine (TNFα and IL8) production assay in THP-1 cells; assay type: cell-based; settings: Homo sapiens, 300 ng/mL LPS
Protocol: Provided compounds were also assayed in an LPS (Lipopolysacharide) or R848 (TLR-7 agonist) induced cytokine (TNFα and IL8) production assay in THP-1 cells, human white blood cells (hWBC), and whole blood. The exemplary protocol for this assay in THP-1 cells was as follows below.
THP-1 cells from ATCC (TIB-202) were cultured in RPMI Medium 1640 (Invitrogen, Cat No. A10491-01), 10% fetal bovine serum (Invitrogen, Cat No. 10099141, Lot No. 8172882) containing 100 U/mL Penicillin, 100 μg/mL streptomycin (Invitrogen, Cat No. 15140-122), and 50 uM 2-Mercaptoethanol (Invitrogen, Cat No. 21985023). LPS-EK ultra pure (Invivogen, Cat No. tlrl-peklps) was used to induce IL8 and TNFα production, that was detected in the cell culture supernatant by IL8 HTRF kit (Cisbio, Cat No. 62IL8PEB) and TNFα HTRF kit (Cisbio, Cat No. 62TNFPEB), as per manufacturer instructions. Cells were cultured in 96 well assay plates at 100,000 cells per well, and compounds diluted in final 0.3% DMSO were pre-incubated with cells for 1 hour prior to stimulation with 300 ng/mL LPS. Cytokine production in cell supernatant was measured at 5 hours for TNFα and IL8 production, and for 16 hours for IL8 production and assessment of cell viability.
The compound numbers correspond to the compound numbers in Table 1. […] “NA” stands for “not assayed.”

[2] = 5 hours, read-out: TNFα production IC50
[3] = 16 hours, read-out: IL8 (16 h) production IC50

Structure (SMILES) | IC50 (IRAK4) [nM] | IC50 [1, 2] [nM] | IC50 [1, 3] [nM]
CCc1nc2c(N[C@H]3CC[C@H](N4CCOCC4)CC3)nc(Nc3cnn(C(C)C)c3)nc2s1 [Compound I-8, 2-ethyl-N5-(1-isopropyl-1H-pyrazol-4-yl)-N7-((1r,4r)-4-morpholinocyclohexyl)thiazolo[5,4-d]pyrimidine-5,7-diamine] | ≤ 1000 | ≤ 250 | ≤ 250
CCc1nc2c(N[C@H]3CC[C@H](N4CCOCC4)CC3)nc(Nc3cnn(C4CCS(=O)(=O)CC4)c3)nc2s1 [Compound I-10, 4-(4-((2-ethyl-7-(((1r,4r)-4-morpholino-cyclohexyl)amino)-thiazolo[5,4-d]pyrimidin-5-yl)amino)-1H-pyrazol-1-yl)tetrahydro-2H-thiopyran 1,1-dioxide] | ≤ 1000 | ≤ 250 | ≤ 250
CCc1nc2c(N[C@H]3CC[C@H](N4CCC5(CC4)COC5)CC3)nc(Nc3cnn(C4CCOCC4)c3)nc2s1 [Compound I-14, N7-((1r,4r)-4-(2-oxa-7-azaspiro[3.5]nonan-7-yl)cyclohexyl)-2-ethyl-N5-(1-(tetrahydro-2H-pyran-4-yl)-1H-pyrazol-4-yl)thiazolo[5,4-d]pyrimidine-5,7-diamine] | ≤ 1000 | ≤ 250 | ≤ 250
CCc1nc2c(N[C@H]3CC[C@H](N4CCC(O)CC4)CC3)nc(Nc3cnn(C4CCOCC4)c3)nc2s1 [Compound I-16] | ≤ 1000 | ≤ 250 | –
CCc1nc2c(N[C@H]3CC[C@H](N4CCOCC4)CC3)nc(Nc3cnn(CC4CCOCC4)c3)nc2s1 [Compound I-18, 2-ethyl-N7-((1r,4r)-4-morpholinocyclohexyl)-N5-(1-((tetrahydro-2H-pyran-4-yl)methyl)-1H-pyrazol-4-yl)thiazolo[5,4-d]pyrimidine-5,7-diamine] | ≤ 1000 | ≤ 250 | ≤ 250
CCc1nc2c(N[C@H]3CC[C@H](N4CCC(F)(F)CC4)CC3)nc(Nc3cnn(C4CCOCC4)c3)nc2s1 [Compound I-19, 2-ethyl-5-N-[1-(oxan-4-yl)-1H-pyrazol-4-yl]-7-N-[trans-4-(4,4-difluoropiperidin-1-yl)cyclohexyl]-[1,3]thiazolo[5,4-d]pyrimidine-5,7-diamine] | ≤ 1000 | ≤ 250 | –
CCc1nc2c(N[C@H]3CC[C@H](N4CCOCC4)CC3)nc(Nc3cnn(CC)c3)nc2s1 [Compound I-22, 2-ethyl-N5-(1-ethyl-1H-pyrazol-4-yl)-N7-((1r,4r)-4-morpholino-cyclohexyl)thiazolo[5,4-d]pyrimidine-5,7-diamine] | ≤ 1000 | 250 to 500 | ≤ 250

More lines, now with the values ahead:

IC50 (IRAK4) [nM] | IC50 [1, 2] [nM] | IC50 [1, 3] [nM] | Structure (SMILES)
≤ 1000 | 250 to 500 | 250 to 500 | CCc1nc2c(N[C@H]3CC[C@@H](N4CCC(F)(F)CC4)CC3)nc(Nc3cnn(C)c3)nc2s1 [Compound I-12, N7-((1s,4s)-4-(4,4-difluoropiperidin-1-yl)cyclohexyl)-2-ethyl-N5-(1-methyl-4H-pyrazol-4-yl)thiazolo[5,4-d]pyrimidine-5,7-diamine]
≤ 1000 | ≤ 250 | ≤ 250 | CCc1nc2c(N[C@H]3CC[C@H](N4CCC5(CC4)COC5)CC3)nc(Nc3cnn(C)c3)nc2s1 [Compound I-13, N7-((1r,4r)-4-(2-oxa-7-azaspiro[3.5]nonan-7-yl)cyclohexyl)-2-ethyl-N5-(1-methyl-1H-pyrazol-4-yl)thiazolo[5,4-d]pyrimidine-5,7-diamine]
≤ 1000 | ≤ 250 | – | CCc1nc2c(N[C@H]3CC[C@H](N4CCC(O)CC4)CC3)nc(Nc3cnn(C)c3)nc2s1 [Compound I-17, 1-((1r,4r)-4-((2-ethyl-5-((1-methyl-1H-pyrazol-4-yl)amino)-thiazolo[5,4-d]pyrimidin-7-yl)amino)cyclohexyl)piperidin-4-ol]
≤ 1000 | ≤ 250 | ≤ 250 | CCc1nc2c(N[C@H]3CC[C@H](N4CCC5(CC4)CC5)CC3)nc(Nc3cnn(C)c3)nc2s1 [Compound I-21, N7((1r,4r)-4-(6-azaspiro[2.5]octan-6-yl)cyclohexyl)-2-ethyl-N5-(1-methyl-1H-pyrazol-4-yl)thiazolo[5,4-d]pyrimidine-5,7-diamine]
